Test results: ChEMBL document CHEMBL4052668, “Synthesis and evaluation of symmetric acyclic nucleoside bisphosphonates as inhibitors of the Plasmodium falciparum, Plasmodium vivax and human 6-oxopurine phosphoribosyltransferases and the antimalarial activity of their prodrugs” (Bioorg Med Chem, 2017)
Activity calls are given as the source filed them. The calls are words filed in the database; no cut-off is given here.

How the values were obtained:
[1] = target: T1, Hypoxanthine-guanine phosphoribosyltransferase (Homo sapiens, UniProt P00492); experiment: Inhibition of N-terminal hexa-histidine-tagged human HGPRT using PRib-PP as substrate in presence of guanine by Hanes plot analysis
T1 sequence (P00492 whole entry): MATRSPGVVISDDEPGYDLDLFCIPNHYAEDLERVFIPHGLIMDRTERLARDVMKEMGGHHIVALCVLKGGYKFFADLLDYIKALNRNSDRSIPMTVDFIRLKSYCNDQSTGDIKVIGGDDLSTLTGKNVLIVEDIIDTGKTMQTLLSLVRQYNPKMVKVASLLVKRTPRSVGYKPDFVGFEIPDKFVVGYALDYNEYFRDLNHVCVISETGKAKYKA

[2] = Inhibition of Plasmodium falciparum HGXPRT using PRib-PP as substrate in presence of guanine by Hanes plot analysis
[3] = Inhibition of N-terminal hexa-histidine-tagged Plasmodium vivax HGPRT using PRib-PP as substrate in presence of guanine by Hanes plot analysis
[4] = Cytotoxicity against human A549 cells after 4 days by coulter counting method; assay type: cell-based
[5] = tested on: Plasmodium falciparum; experiment: Inhibition of Plasmodium falciparum HGXPRT at 31 uM using PRib-PP as substrate in presence of guanine by spectrophotometric method
[6] = tested on: Plasmodium vivax; experiment: Inhibition of N-terminal hexa-histidine-tagged Plasmodium vivax HGPRT at 31 uM using PRib-PP as substrate in presence of guanine by spectrophotometric method
[7] = Stability of the compound in pH 7 solution; assay type: physicochemical; settings: buffer
[8] = tested on: Plasmodium falciparum; experiment: Antimalarial activity against Plasmodium falciparum D6 trophozoites assessed as reduction in [3H]-hypoxanthine incorporation preincubated for 96 hrs followed by [3H]-hypoxanthine addition at 48 hrs post start of experiment; assay type: functional
[9] = tested on: Plasmodium falciparum; experiment: Antimalarial activity against chloroquine/pyrimethamine-resistant Plasmodium falciparum W2 trophozoites assessed as reduction in [3H]-hypoxanthine incorporation preincubated for 96 hrs followed by [3H]-hypoxanthine addition at 48 hrs post start of experiment; assay type: functional
[10] = target: T2, Hypoxanthine-guanine phosphoribosyltransferase (Homo sapiens) (UniProt P00492); experiment: Inhibition of N-terminal hexa-histidine-tagged human HGPRT at 42 uM using PRib-PP as substrate in presence of guanine by spectrophotometric analysis
T2 sequence (whole entry): T1 sequence (P00492 whole entry)

[11] = tested on: Plasmodium falciparum; experiment: Inhibition of Plasmodium falciparum HGXPRT at 42 uM using PRib-PP as substrate in presence of guanine by spectrophotometric method
[12] = tested on: Plasmodium vivax; experiment: Inhibition of N-terminal hexa-histidine-tagged Plasmodium vivax HGPRT at 42 uM using PRib-PP as substrate in presence of guanine by spectrophotometric method
[13] = tested on: Plasmodium falciparum; experiment: Inhibition of Plasmodium falciparum HGXPRT at 46 uM using PRib-PP as substrate in presence of guanine by spectrophotometric method
[14] = tested on: Plasmodium falciparum; experiment: Inhibition of Plasmodium falciparum HGXPRT at 29 uM using PRib-PP as substrate in presence of guanine by spectrophotometric method
[15] = tested on: Plasmodium vivax; experiment: Inhibition of N-terminal hexa-histidine-tagged Plasmodium vivax HGPRT at 29 uM using PRib-PP as substrate in presence of guanine by spectrophotometric method
[16] = tested on: Plasmodium falciparum; experiment: Inhibition of Plasmodium falciparum HGXPRT at 32 uM using PRib-PP as substrate in presence of guanine by spectrophotometric method
[17] = target: T2, Hypoxanthine-guanine phosphoribosyltransferase (Homo sapiens); experiment: Inhibition of N-terminal hexa-histidine-tagged human HGPRT at 35 uM using PRib-PP as substrate in presence of guanine by spectrophotometric analysis
[18] = tested on: Plasmodium falciparum; experiment: Inhibition of Plasmodium falciparum HGXPRT at 35 uM using PRib-PP as substrate in presence of guanine by spectrophotometric method
[19] = tested on: Plasmodium vivax; experiment: Inhibition of N-terminal hexa-histidine-tagged Plasmodium vivax HGPRT at 35 uM using PRib-PP as substrate in presence of guanine by spectrophotometric method

| Structure (SMILES) | Ki [1] [µM] | Ki [3] [µM] | CC50 at 96 h [4] [µM] | Stability [7] | IC50 [8] [µM] | IC50 [9] [µM] | other results |
| --- | --- | --- | --- | --- | --- | --- | --- |
| Nc1nc2c(ccn2C(COCCP(=O)(O)O)COCCP(=O)(O)O)c(=O)[nH]1 | 5 | 49 |  |  |  |  | Ki [2]: 6 µM |
| CCOC(=O)[C@H](Cc1ccccc1)NP(=O)(CCOCC(COCCP(=O)(N[C@@H](Cc1ccccc1)C(=O)OCC)N[C@@H](Cc1ccccc1)C(=O)OCC)n1c(Br)nc2c(=O)[nH]cnc21)N[C@@H](Cc1ccccc1)C(=O)OCC |  |  | 278 |  |  |  |  |
| O=c1[nH]cnc2c1ccn2CC(COCCP(=O)(O)O)COCCP(=O)(O)O | 17 |  |  |  |  |  | inhibition [5]: inactive; inhibition [6]: inactive |
| Nc1nc2c(nc(Br)n2C(COCCP(=O)(O)O)COCCP(=O)(O)O)c(=O)[nH]1 | 19 | 153 |  |  |  |  | Ki [2]: 4 µM |
| CCOC(=O)[C@H](Cc1ccccc1)NP(=O)(CCOCC(COCCP(=O)(N[C@@H](Cc1ccccc1)C(=O)OCC)N[C@@H](Cc1ccccc1)C(=O)OCC)Cn1cnc2c(=O)[nH]cnc21)N[C@@H](Cc1ccccc1)C(=O)OCC |  |  | 66 | Stable | 1.7 | 4.6 |  |
| O=c1[nH]cnc2c1ccn2C(COCCP(=O)(O)O)COCCP(=O)(O)O |  |  |  |  |  |  | inhibition [10]: inactive; inhibition [11]: inactive; inhibition [12]: inactive |
| CCOC(=O)[C@H](Cc1ccccc1)NP(=O)(CCOCC(COCCP(=O)(N[C@@H](Cc1ccccc1)C(=O)OCC)N[C@@H](Cc1ccccc1)C(=O)OCC)Cn1ccc2c(=O)[nH]c(N)nc21)N[C@@H](Cc1ccccc1)C(=O)OCC |  |  | 95 | Stable | 0.8 | 2.1 |  |
| CCOC(=O)[C@H](Cc1ccccc1)NP(=O)(CCOCC(COCCP(=O)(N[C@@H](Cc1ccccc1)C(=O)OCC)N[C@@H](Cc1ccccc1)C(=O)OCC)n1c(Br)nc2c(=O)[nH]c(N)nc21)N[C@@H](Cc1ccccc1)C(=O)OCC |  |  |  |  | 4.4 | 7 |  |
| CCOC(=O)[C@H](Cc1ccccc1)NP(=O)(CCOCC(COCCP(=O)(N[C@@H](Cc1ccccc1)C(=O)OCC)N[C@@H](Cc1ccccc1)C(=O)OCC)Cn1ccc2c(=O)[nH]cnc21)N[C@@H](Cc1ccccc1)C(=O)OCC |  |  | 23 | Stable |  |  |  |
| CCOC(=O)[C@H](Cc1ccccc1)NP(=O)(CCOCC(COCCP(=O)(N[C@@H](Cc1ccccc1)C(=O)OCC)N[C@@H](Cc1ccccc1)C(=O)OCC)n1ccc2c(=O)[nH]c(N)nc21)N[C@@H](Cc1ccccc1)C(=O)OCC |  |  | > 300 | Stable | 0.8 | 1.1 |  |
| CCOC(=O)[C@H](Cc1ccccc1)NP(=O)(CCOCC(COCCP(=O)(N[C@@H](Cc1ccccc1)C(=O)OCC)N[C@@H](Cc1ccccc1)C(=O)OCC)Cn1c(Br)nc2c(=O)[nH]c(N)nc21)N[C@@H](Cc1ccccc1)C(=O)OCC |  |  | 94 |  | 22.1 | 21.3 |  |
| CCOC(=O)[C@H](Cc1ccccc1)NP(=O)(CCOCC(COCCP(=O)(N[C@@H](Cc1ccccc1)C(=O)OCC)N[C@@H](Cc1ccccc1)C(=O)OCC)n1cnc2c(=O)[nH]cnc21)N[C@@H](Cc1ccccc1)C(=O)OCC |  |  | > 300 | Stable | 1.5 | 1.7 |  |
| O=c1[nH]cnc2c1ncn2CC(COCCP(=O)(O)O)COCCP(=O)(O)O | 1.5 | 6 |  |  |  |  | inhibition [13]: inactive |
| O=c1[nH]cnc2c1nc(Br)n2CC(COCCP(=O)(O)O)COCCP(=O)(O)O | 9.7 |  |  |  |  |  | inhibition [14]: inactive; inhibition [15]: inactive |
| CCOC(=O)[C@H](Cc1ccccc1)NP(=O)(CCOCC(COCCP(=O)(N[C@@H](Cc1ccccc1)C(=O)OCC)N[C@@H](Cc1ccccc1)C(=O)OCC)n1ccc2c(=O)[nH]cnc21)N[C@@H](Cc1ccccc1)C(=O)OCC |  |  | 130 | Stable |  |  |  |
| Nc1nc2c(nc(Br)n2CC(COCCP(=O)(O)O)COCCP(=O)(O)O)c(=O)[nH]1 | 0.25 | 1.6 |  |  |  |  | inhibition [16]: inactive |
| Nc1nc2c(ncn2CC(COCCP(=O)(O)O)COCCP(=O)(O)O)c(=O)[nH]1 | 0.1 | 0.16 |  |  |  |  |  |
| CCOC(=O)[C@H](Cc1ccccc1)NP(=O)(CCOCC(COCCP(=O)(N[C@@H](Cc1ccccc1)C(=O)OCC)N[C@@H](Cc1ccccc1)C(=O)OCC)Cn1c(Br)nc2c(=O)[nH]cnc21)N[C@@H](Cc1ccccc1)C(=O)OCC |  |  | 43 |  |  |  |  |
| O=c1[nH]cnc2c1nc(Br)n2C(COCCP(=O)(O)O)COCCP(=O)(O)O |  |  |  |  |  |  | inhibition [17]: inactive; inhibition [18]: inactive; inhibition [19]: inactive |
| Nc1nc2c(ccn2CC(COCCP(=O)(O)O)COCCP(=O)(O)O)c(=O)[nH]1 | 1 | 1.5 |  |  |  |  |  |
| CCOC(=O)[C@H](Cc1ccccc1)NP(=O)(CCOCC(COCCP(=O)(N[C@@H](Cc1ccccc1)C(=O)OCC)N[C@@H](Cc1ccccc1)C(=O)OCC)Cn1cnc2c(=O)[nH]c(N)nc21)N[C@@H](Cc1ccccc1)C(=O)OCC |  |  | > 300 | Stable | 5.1 | 6.9 |  |
| Nc1nc2c(ncn2C(COCCP(=O)(O)O)COCCP(=O)(O)O)c(=O)[nH]1 | 0.3 | 21 |  |  |  |  | Ki [2]: 0.2 µM |
| CCOC(=O)[C@H](Cc1ccccc1)NP(=O)(CCOCC(COCCP(=O)(N[C@@H](Cc1ccccc1)C(=O)OCC)N[C@@H](Cc1ccccc1)C(=O)OCC)n1cnc2c(=O)[nH]c(N)nc21)N[C@@H](Cc1ccccc1)C(=O)OCC |  |  | > 300 | Stable | 10 | 9.4 |  |
| O=c1[nH]cnc2c1ncn2C(COCCP(=O)(O)O)COCCP(=O)(O)O | 3 | 21 |  |  |  |  | Ki [2]: 0.7 µM |
| Nc1nc2c(nc(Br)n2CC(COCP(=O)(O)O)COCP(=O)(O)O)c(=O)[nH]1 | 4 | 89 |  |  |  |  | Ki [2]: 1 µM |
